# Experimental data: patent US12077495B2 (priority 2018, dated 2024)
# What was measured:
# [1] = tested on: photothrombotic focal ischemia in C57BL/6J mice; assay: Photothrombotic mouse model of focal ischemia, infarct volume; assay type: in vivo; conditions: for infarct volume: saline 9.38
# Method: All procedures were performed in accordance with the guidelines on the care and use of laboratory animals set out by the University of Otago, Animal Research Committee and the Guide for Care and Use of Laboratory Animals (NIH Publication No. 85-23, 1996). All in vivo studies were approved by the University of Otago Animal Ethics Committee and are reported according to the ARRIVE (Animal Research: Reporting In Vivo Experiments) guidelines. The photochemical cortical lesion model resembles situations of acute brain injury related clinically to stroke and traumatic brain injury (TBI). Focal ischemia was induced by photothrombosis in male C57BL/6J mice (8-10 weeks) weighing ˜23-30 g as previously described (Clarkson et al., 2010). Under anesthesia with isoflurane (2% to 2.5% in O2) mice were placed in a stereotactic apparatus, the skull exposed through a midline incision, cleared of connective tissue and dried. A cold light source (KL1500 LCD, Zeiss, Auckland, New Zealand) attached to a 40× objective providing a 2-mm diameter illumination was positioned 1.5 mm lateral from bregma. Then, 0.2 ml of Rose Bengal (Sigma-Aldrich, Auckland, New Zealand; 10 mg/ml in normal saline) was administered i.p. After 5 min, the brain was illuminated through the exposed intact skull for 15 min, while keeping body temperature at 37.0±0.3° C. degrees using a heating pad (Harvard apparatus, Holliston, MA, USA). The skin was glued and animals left in a cage placed on a heating pad during the wake-up phase. Mice were housed under a 12-hr light/dark cycle with ad libitum access to food and water. Further, the mice were monitored and weighed on a daily basis.
# For in vivo studies, all compounds were dissolved in a mixture of sterile saline and H2O to obtain isotonicity (0.9%) and administered as 10 mg/ml and 10 μl of solution per gram mouse body weight. The injection of compound (i.p.) was performed 30 min, 3, 6 or 12 hrs after induction of the photothrombotic stroke. The vehicle groups received a corresponding volume of saline (0.9%) at the same time points (30 min, 3, 6 or 12 hrs).
# For quantification of the infarcted area, animals were perfused with saline and then with 4% paraformaldehyde (PFA) and the brain dissected out and submerged in 4% PFA for post-fixing overnight. Then the brains were moved to 30% sucrose solution and kept at 4° C. until processing. Brains were cut in 30 μm sections, free-floating in anti-freeze media. Sections were mounted, stained for cresyl violet and the infarct volumes determined by measuring every 6th section through the entire infarct as described in Lie et al (2017). All analyses were performed by an observer blinded to the treatment groups. Brains from the pMCAO studies were flash-frozen in CO2 (gas) and processed into six parallel series of sections (30 μm). Separate series were collected on glass slides and used for infarct size analysis or in Eppendorf tubes and used for qPCR. The glass slides were stored at −80° C. until further processing, and then Cresyl-Violet stained and quantified as described for the photothrombotic photochemical method.
# [2] = tested on: GFAP, CD14 and MMP9 mRNA; assay: qPCR of molecular markers in peri-infarct tissue after photothrombotic focal ischemia; assay type: in vivo, mice; conditions: 3 days post-stroke
# Method: Tissue from the peri-infarct area was collected and snap-frozen 12-72 hrs post stroke and RNA was extracted using a RNA mini kit (Qiagen) following the instructions from the manufacturer. Extracted RNA was treated with DNAse using Turbo DNA-free kit (Ambion), all according to the manufacturer's protocol. The reverse transcription was performed using gScript™ cDNA SuperMix (Quanta Biosciences, Gaithersburg, MD, USA) on a standard PCR machine (25° C. for 5 min, 42° C. for 30 min, 85° C. for 5 min) and cDNA stored at −20° C. until further processing.
# qPCR was performed in 96-well plates (Agilent Technologies, Santa Clara, CA, USA) mixing PerfeCTa SYBR Green FastMix (Quanta Biosciences), nuclease free water (Qiagen, West Sussex, UK), and primers (TAG Copenhagen A/S (Copenhagen, Denmark). The PCR was performed with an initial denaturation step of 95° C. for 30 s, followed by 40 cycles of 5 s at 95° C., 60° C. for 15 s and 72° C. for 10 s. To assure single-product amplification, a dissociation curve analysis was performed consisting of 60 s at 95° C., 30 s at 55° C. and 30 s at 95° C. The qPCR was performed using the Agilent Mx3005P qPCR system (Agilent Technologies), and the corresponding MxPro software was used to determine the Ct values. The ΔCt values were calculated using 2 (Reference Ct−Target Ct).
# To investigate the protective mechanisms against brain damage following a focal ischemic insult, mRNA expression levels of the markers GFAP, CD14 and MMP9 were measured in the brain tissue surrounding the ischemic core 3 days post-stroke.
# [3] = tested on: permanent middle cerebral artery occlusion in C57BL/6J mice; assay: pMCAO model, behavioural assessment (rotarod, grip strength, Hargreaves); assay type: in vivo; conditions: 175 mg/kg 30 min after pMCAO
# Method: To assess sensory-motor impairment, animals were tested in the rotarod, grip strength and Hargreaves tests 2-3 days post-stroke.
# The rotarod (LE 8200, Panlab) measures motor performance in rodents by assessing the time during which the animal remains on a rotating rod. The rod rotation accelerates from 0 to 40 rounds per min (rpm) over a time period of 5 min 48 hrs post-stroke, mice were tested in four repeating trials with a 20 min interval (resting time). Prior to surgery, mice were pretrained to stay on the rod for 30 s at 4 rpm. The grip strength meter (BIO-GT-3, BIOSEB) allowed the study of neuromuscular functions in mice by determining the maximum force that is required to make the mouse release its grip.
# The mouse is allowed to grasp a metal grid and then pulled backwards in the horizontal plane. The force applied to the grid is recorded as the peak tension. Individual (right and left) and total (both) front paw grip strength was measured before (baseline) and 3 days after pMCAO. Each mouse was tested in five sequential trials and the highest grip strength was recorded as the score. Thermal hyperalgesia (hind paw withdrawal from a normally innocuous heat source) was tested with a Hargreaves test setup. […] The lowest and highest reflex latency scores were discarded and the average for left and right was calculated and plotted.
# Compound A (175 mg/kg) was administered to mice 30 min after induction of a focal stroke via a permanent occlusion of the middle cerebral artery and compared to saline-treated animals and both motor- and sensory impairment was investigated using rotarod, grip strength and Hargreaves tests.
# [4] = 175 mg/kg i.p. 30 min after stroke, day 3
# [5] = 175 mg/kg 30 min after ischemia
smiles,measurement,setting,value
"O=C(O)C1=CC(O)CC1 (stereo not shown) [Compound A, 3-hydroxycyclopent-1-enecarboxylic acid]",infarct volume,"[1]; 17.5 mg/kg i.p. 30 min after stroke, day 3, not significant",8.95 mm^3
same,decrease of infarct size vs saline,[1]; 90 mg/kg 3 hrs after stroke,51%
same,infarct size,"[1]; 90 mg/kg 3 hrs after stroke, saline 5.55",2.68 mm^3
same,decrease of infarct size vs saline,"[1]; 175 mg/kg i.p. 3, 6 or 12 hrs after stroke",33-43%
same,reduction of infarct volume vs saline,[1]; [4],30%
same,infarct volume,[1]; [4],6.56 mm^3
same,infarct size,"[1]; 175 mg/kg i.p. 3 hrs after stroke, saline 5.51",3.12 mm^3
same,infarct size,"[1]; 175 mg/kg i.p. 6 hrs after stroke, saline 5.51",3.68 mm^3
same,infarct size,"[1]; 175 mg/kg i.p. 12 hrs after stroke, saline 5.51",3.58 mm^3
same,MMP9 mRNA levels,"[2]; 17.5 mg/kg, vs saline",significantly lower
same,CD14 mRNA levels,[2]; [5],markedly lowered
same,MMP9 mRNA levels,[2]; [5],markedly lowered
same,GFAP mRNA levels,"[2]; peri-infarct tissue, vs saline",not different
same,"Hargreaves test, increased response time in affected forelimb",[3],not evident
same,"rotarod test, learning","[3]; 48 hrs post-stroke, T1 to T2",steeper learning curve
same,grip strength deficit in affected fore limb,[3]; three days after stroke,did not demonstrate any deficit
